Test results: ChEMBL document CHEMBL1201862, “PubChem BioAssay data set” (2004)
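In this assay, cells in 96-well plates receive the compound at five concentrations for 48 hours. Endpoints are linearly interpolated between the surrounding concentrations. GI50 marks 50% less growth.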 Active and inactive are the calls of the source. Cut-off read from the data, not from the text of the source: active = GI50 up to about 1.1 µM and inactive = higher.

Assays:
Assay in all cases: DTP human tumour cell line panel, 48 h
[1] = tested on: HOP-92
[2] = tested on: RXF 393
[3] = tested on: LOX IMVI
[4] = tested on: MOLT-4
[5] = tested on: NCI/ADR-RES
[6] = tested on: SNB-75
[7] = tested on: OVCAR-4
[8] = tested on: 786-0
[9] = tested on: SF-295
[10] = tested on: M14
[11] = tested on: HCT-116
[12] = tested on: NCI-H522
[13] = tested on: NCI-H460
[14] = tested on: SK-MEL-2
[15] = tested on: OVCAR-5
[16] = tested on: MDA-MB-231
[17] = tested on: TK-10
[18] = tested on: SF-539
[19] = tested on: HT-29
[20] = tested on: K562
[21] = tested on: HOP-62
[22] = tested on: Malme-3M
[23] = tested on: MDA-N
[24] = tested on: CAKI-1
[25] = tested on: OVCAR-8
[26] = tested on: MDA-MB-435
[27] = tested on: HCT-15
[28] = tested on: MCF7
[29] = tested on: CCRF-CEM
[30] = tested on: ACHN
[31] = tested on: SN12C
[32] = tested on: Hs-578T
[33] = tested on: NCI-H226
[34] = tested on: PC-3
[35] = tested on: EKVX
[36] = tested on: HCC 2998
[37] = tested on: OVCAR-3
[38] = tested on: UACC-257
[39] = tested on: IGROV-1
[40] = tested on: NCI-H23
[41] = tested on: BT-549
[42] = tested on: COLO 205
[43] = tested on: T47D
[44] = tested on: SF-268
[45] = tested on: RPMI-8226
[46] = tested on: UACC-62
[47] = tested on: SNB-19
[48] = tested on: DU-145
[49] = tested on: A498
[50] = tested on: KM12
[51] = tested on: SK-MEL-28
[52] = tested on: SK-OV-3
[53] = tested on: U-251
[54] = tested on: SW-620
[55] = tested on: HL-60
[56] = tested on: A549
[57] = tested on: SK-MEL-5
[58] = tested on: UO-31
[59] = tested on: SR

Measured: GI50

O=c1cc(N2CCOCC2)[nH]c(=O)n1-c1cccc(Cl)c1
inactive: [1] > 100 µM | [2] > 100 µM | [3] > 100 µM | [4] > 100 µM | [5] > 100 µM | [6] > 100 µM | [7] > 100 µM | [8] > 100 µM | [9] > 100 µM | [10] > 100 µM | [11] > 100 µM | [12] > 100 µM | [13] > 100 µM | [14] > 100 µM | [15] > 100 µM | [16] > 100 µM | [17] > 100 µM | [18] > 100 µM | [19] > 100 µM | [20] > 100 µM | [21] > 100 µM | [22] > 100 µM | [23] > 100 µM | [24] > 100 µM | [25] > 100 µM | [26] > 100 µM | [28] > 100 µM | [29] > 100 µM | [30] > 100 µM | [31] > 100 µM | [32] > 100 µM | [33] > 100 µM | [34] > 100 µM | [35] > 100 µM | [36] > 100 µM | [37] > 100 µM | [38] > 100 µM | [39] > 100 µM | [40] > 100 µM | [41] > 100 µM | [42] > 100 µM | [43] > 100 µM | [44] > 100 µM | [45] > 100 µM | [46] > 100 µM | [47] > 100 µM | [48] > 100 µM | [49] 32.4 µM | [50] > 100 µM | [51] > 100 µM | [52] > 100 µM | [53] > 100 µM | [54] > 100 µM | [55] > 100 µM
> 100 µM: [27]

CC[C@@]12C=CC(=S)N(CCSc3ccccc3)[C@@H]1c1c(n(S(=O)(=O)c3ccc(OC)cc3)c3ccccc13)CC2
inactive: [1] > 100 µM | [2] 16.6 µM | [3] > 100 µM | [4] > 100 µM | [5] > 100 µM | [6] > 100 µM | [8] > 100 µM | [9] > 100 µM | [10] > 100 µM | [11] > 100 µM | [56] > 100 µM | [12] > 100 µM | [13] > 100 µM | [14] > 100 µM | [15] > 100 µM | [16] > 100 µM | [57] > 100 µM | [17] > 100 µM | [18] > 100 µM | [58] > 100 µM | [19] > 100 µM | [20] > 100 µM | [21] > 100 µM | [22] > 100 µM | [23] > 100 µM | [24] > 100 µM | [25] > 100 µM | [26] > 100 µM | [28] > 100 µM | [29] > 100 µM | [31] > 100 µM | [32] > 100 µM | [34] > 100 µM | [35] > 100 µM | [36] > 100 µM | [37] > 100 µM | [38] > 100 µM | [40] > 100 µM | [41] > 100 µM | [42] > 100 µM | [43] > 100 µM | [44] > 100 µM | [46] > 100 µM | [47] > 100 µM | [48] > 100 µM | [49] > 100 µM | [50] > 100 µM | [51] > 100 µM | [52] > 100 µM | [53] > 100 µM | [54] > 100 µM | [55] > 100 µM
> 100 µM: [27]

COc1ccc2c(c1)CCCN1Cc3ccccc3CC21 (stereo not given)
> 100 µM: [27]
inactive: [1] 30.7 µM | [2] 48.3 µM | [3] 43.5 µM | [4] 54.2 µM | [5] > 100 µM | [6] 44.7 µM | [7] > 100 µM | [8] 99.1 µM | [9] 65.9 µM | [10] 39.5 µM | [11] 52.7 µM | [56] > 100 µM | [12] > 100 µM | [13] 76 µM | [15] 78.2 µM | [16] 91.4 µM | [57] 22.5 µM | [17] > 100 µM | [18] 92.7 µM | [58] 44.7 µM | [19] 32.7 µM | [20] 31.3 µM | [21] 40.8 µM | [22] 41.9 µM | [23] 38.2 µM | [24] > 100 µM | [25] > 100 µM | [26] 54.1 µM | [28] > 100 µM | [29] 77.1 µM | [30] > 100 µM | [31] 64.1 µM | [32] > 100 µM | [33] 31.5 µM | [34] 78.9 µM | [35] 98.4 µM | [36] 19.1 µM | [37] 52.7 µM | [38] 91.2 µM | [39] 49.4 µM | [40] > 100 µM | [41] > 100 µM | [42] 40.7 µM | [43] 33.7 µM | [44] > 100 µM | [46] 91.6 µM | [47] 67.1 µM | [48] > 100 µM | [49] 27 µM | [50] 65 µM | [51] 62.1 µM | [52] > 100 µM | [53] 75.2 µM | [54] 65.6 µM | [55] 28.8 µM

Cc1nc2ccc(S(=O)(=O)Nc3nccs3)cc2c(=O)n1NS(=O)(=O)c1nccs1
inactive: [1] > 100 µM | [2] > 100 µM | [4] 28.5 µM | [5] > 100 µM | [6] > 100 µM | [7] > 100 µM | [9] 58.7 µM | [10] > 100 µM | [12] 60.8 µM | [13] 50.2 µM | [14] > 100 µM | [15] > 100 µM | [16] > 100 µM | [57] 88.7 µM | [17] > 100 µM | [18] > 100 µM | [58] 13.7 µM | [19] 41.5 µM | [20] 69.7 µM | [21] > 100 µM | [22] > 100 µM | [23] > 100 µM | [24] > 100 µM | [25] > 100 µM | [26] 40.3 µM | [28] 37.4 µM | [29] 86.7 µM | [30] 32 µM | [31] > 100 µM | [32] > 100 µM | [33] > 100 µM | [34] 86.9 µM | [35] > 100 µM | [36] > 100 µM | [37] > 100 µM | [38] > 100 µM | [39] > 100 µM | [40] > 100 µM | [41] > 100 µM | [42] > 100 µM | [43] > 100 µM | [44] > 100 µM | [45] > 100 µM | [46] 72.9 µM | [47] > 100 µM | [48] > 100 µM | [49] > 100 µM | [50] 64.9 µM | [51] > 100 µM | [52] > 100 µM | [53] > 100 µM | [54] 78.3 µM | [55] 79.1 µM
> 100 µM: [27]

Cc1cccc(C)c1NC(=S)NC=C1C(=O)c2ccccc2C1=O
active: [4] 0.75 µM
7.35 µM: [27]
inactive: [1] 12.5 µM | [2] 4.3 µM | [3] 19.1 µM | [5] 16.8 µM | [6] 3.52 µM | [7] 10.5 µM | [8] 13.1 µM | [9] 4.67 µM | [10] 17.5 µM | [11] 4.62 µM | [56] 6.78 µM | [12] 3.41 µM | [13] 3.98 µM | [14] 16 µM | [15] 39.7 µM | [16] 19.5 µM | [57] 7.91 µM | [17] 6.73 µM | [18] 11.2 µM | [58] 9.29 µM | [19] 5.78 µM | [20] 3.61 µM | [21] 23.2 µM | [23] 9.14 µM | [24] 17.8 µM | [25] 1.44 µM | [26] 7.5 µM | [28] 4.59 µM | [29] 5.18 µM | [30] 5.19 µM | [31] 9.42 µM | [32] 10.5 µM | [33] 46.1 µM | [34] 3.76 µM | [35] 9.82 µM | [36] 5.86 µM | [37] 5.38 µM | [38] 12.4 µM | [59] 2.22 µM | [39] 6.95 µM | [40] 16.6 µM | [41] 4.84 µM | [42] 3.52 µM | [43] 6.17 µM | [44] 7.52 µM | [45] 3.07 µM | [46] 5.24 µM | [47] 18.2 µM | [48] 12.1 µM | [50] 2.83 µM | [51] 15.3 µM | [52] 18.4 µM | [53] 3.09 µM | [54] 6.85 µM | [55] 2.45 µM
